According to patent US7022700B2, “Method of increasing neutrophil production using optically-pure (R)-2,3-benzodiazepines” (Vela Pharmaceuticals, Inc., priority 2002, dated 2006):
Marks after values point to notes of the source that are not given here.

Columns and labels:
IL-2 production = settings: in vitro; cited from earlier work
[1] = system: central benzodiazepine (BZ) receptors; settings: cited from earlier work
peripheral BZ receptors = peripheral BZ receptors (Homo sapiens, UniProt P30536); settings: cited from earlier work
lymphocyte = settings: in vitro; cited from earlier work
[2] = system: neutrophil production (absolute neutrophil count); test: Increase in neutrophil production in 16-day study in rat; assay type: in vivo
Protocol: Animals were identified using an implanted microchip identification device encoded with a unique number. Each animal was dosed daily via oral gavage with either a test substance (R-tofisopam) or control, starting on Day 1 and through day 15. The control article was 0.5% low viscosity carboxymethylcellulose (CMC) (Lot No. 74231) and 0.4% Tween 80® (lot no. QJ1033) in reverse osmosis water.
The animals were sacrificed on Day 16 (with the exception of three males and one female which died on test or was sacrificed before the scheduled termination, and which are not included in the mean neutrophil count data). Neutrophil counts in Table 2, below, are reported as a mean value of the count for the animals of each group surviving and sacrificed on Day 16.
The normal range of absolute neutrophil counts is […] for male and 0.2–2.4×10^3 cells/μL for female rats. For each sex, groups 2–4 were compared with the control group (Group 1M or 1F). Group comparisons were evaluated at the 5.0%, two-tailed probability level. Data marked with * represents a statistically significant difference from the corresponding control group.

[3] = in vivo; cited from earlier work
[4] = female rats, group 2F, 100 mg/kg/day oral gavage days 1-15
[5] = female rats, group 3F, 200 mg/kg/day oral gavage days 1-15
[6] = female rats, group 4F, 400 mg/kg/day oral gavage days 1-15
[7] = male rats, group 2M, 100 mg/kg/day oral gavage days 1-15
[8] = male rats, group 3M, 200 mg/kg/day oral gavage days 1-15
[9] = male rats, group 4M, 400 mg/kg/day oral gavage days 1-15

Sequence of peripheral BZ receptors (P30536 whole entry): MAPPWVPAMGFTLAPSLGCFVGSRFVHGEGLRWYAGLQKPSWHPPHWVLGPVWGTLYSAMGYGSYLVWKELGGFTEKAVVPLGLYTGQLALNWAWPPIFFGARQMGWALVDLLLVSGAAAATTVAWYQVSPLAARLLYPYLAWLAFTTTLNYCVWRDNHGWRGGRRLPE

CCC1C(C)=NN=C(c2ccc(OC)c(OC)c2)c2cc(OC)c(OC)cc21 (racemic) [tofisopam]
IL-2 production (IL-2 production): enhances
interaction with central benzodiazepine (BZ) receptors [1]: does not interact
binding to peripheral BZ receptors (peripheral BZ receptors): binds only weakly
mitogen-induced lymphocyte proliferation (lymphocyte): enhances

CC[C@H]1C(C)=NN=C(c2ccc(OC)c(OC)c2)c2cc(OC)c(OC)cc21 [R-tofisopam, (R)-1-(3,4-dimethoxyphenyl)-4-methyl-5-ethyl-7,8-dimethoxy-5H-2,3-benzodiazepine]
Mean % change (day 16) [2, 4]: 29* %
Mean Neutrophil count (day 16) [2, 4]: 2.4* × 10^3/μL
Mean % change (day 16) [2, 5]: 47* %
Mean Neutrophil count (day 16) [2, 5]: 6.0* × 10^3/μL
Mean % change (day 16) [2, 6]: 63* %
Mean Neutrophil count (day 16) [2, 6]: 11.6* × 10^3/μL
neutrophil levels versus control group ([2]; male and female rats, 100-400 mg/kg/day oral gavage, 5.0% two-tailed probability level): significantly increased in a dose-dependant manner
Mean % change (day 16) [2, 7]: 43* %
Mean Neutrophil count (day 16) [2, 7]: 5.7* × 10^3/μL
Mean % change (day 16) [2, 8]: 45* %
Mean Neutrophil count (day 16) [2, 8]: 7.4* × 10^3/μL
Mean % change (day 16) [2, 9]: 57* %
Mean Neutrophil count (day 16) [2, 9]: 12.9* × 10^3/μL

B1: Nupogen: recombinant version of a human protein, G-CSF (granulocyte-colony stimulating factor) (protein, chains of the INN, looked up)
chain: MTPLGPASSLPQSFLLKCLEQVRKIQGDGAALQEKLCATYKLCHPEELVLLGHSLGIPWAPLSSCPSQALQLAGCLSQLHSGLFLYQGLLQALEGISPELGPTLDTLQLDVADFATTIWQQMEELGMAPALQPTQGAMPAFASAFQRRAGGVLVASHLQSFLEVSYRVLRHLAQP
elimination half-life [3]: 3.5 h

B2: Neulasta: a longer acting derivative of filgrastim (protein, chains of the INN, looked up)
chain: TPLGPASSLPQSFLLKCLEQVRKIQGDGAALQEKLCATYKLCHPEELVLLGHSLGIPWAPLSSCPSQALQLAGCLSQLHSGLFLYQGLLQALEGISPELGPTLDTLQLDVADFATTIWQQMEELGMAPALQPTQGAMPAFASAFQRRAGGVLVASHLQSFLEVSYRVLRHLAQP
modifications: PEG 20 kDa
notes: a longer acting derivative of filgrastim
elimination half-life [3]: 15 to 80 h
